Measured values from the supplement of paper PMC10307832.

Assays:
Assay in all cases: relative viability (nuclei count vs DMSO), 5 days (fraction); higher = more cells survive
Crizotinib + Olaparib = compound: C[C@@H](Oc1cc(-c2cnn(C3CCNCC3)c2)cnc1N)c1c(Cl)ccc(F)c1Cl [Crizotinib] + O=C(c1cc(Cc2n[nH]c(=O)c3ccccc23)ccc1F)N1CCN(C(=O)C2CC2)CC1 [Olaparib] (partner 8 µM)
Procedure, shortened: (§1)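 Lung cancer cell lines were seeded in 1536-well plates and dosed by pin tool the next day, with either a single drug or a fixed anchor-drug dose combined with five library-drug doses (not always all listed) spaced in √10 steps. Five days later, one step fixed the cells and stained their nuclei (final 0.05% Triton X-100, 1% formaldehyde, 1 ug/ml Hoechst), and nuclei were counted on 4× images. Relative viability is the nuclei count in treated wells divided by the count in vehicle wells, and each value is the median of duplicate plates.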

Olaparib + Bortezomib = compound: O=C(c1cc(Cc2n[nH]c(=O)c3ccccc23)ccc1F)N1CCN(C(=O)C2CC2)CC1 [Olaparib] + CC(C)C[C@H](NC(=O)[C@H](Cc1ccccc1)NC(=O)c1cnccn1)B(O)O [Bortezomib] (partner 0.002 µM)
Procedure, shortened: as §1

Crizotinib + AZD7762 = compound: C[C@@H](Oc1cc(-c2cnn(C3CCNCC3)c2)cnc1N)c1c(Cl)ccc(F)c1Cl [Crizotinib] + NC(=O)Nc1cc(-c2cccc(F)c2)sc1C(=O)N[C@H]1CCCNC1 [AZD7762] (partner 0.2 µM)
Procedure, shortened: as §1

Olaparib + Pemetrexed = compound: O=C(c1cc(Cc2n[nH]c(=O)c3ccccc23)ccc1F)N1CCN(C(=O)C2CC2)CC1 [Olaparib] + Nc1nc2[nH]cc(CCc3ccc(C(=O)N[C@@H](CCC(=O)O)C(=O)O)cc3)c2c(=O)[nH]1 [Pemetrexed] (partner 0.2 µM)
Procedure, shortened: as §1

Cell Line: 201T
- relative viability (Crizotinib + Olaparib; first compound 0.01 µM): 0.776
- relative viability (Crizotinib + Olaparib; first compound 0.03162 µM): 0.83
- relative viability (Crizotinib + Olaparib; first compound 0.1 µM): 0.892
- relative viability (Crizotinib + Olaparib; first compound 0.3162 µM): 0.846
- relative viability (Crizotinib + Olaparib; first compound 1 µM): 0.861
- relative viability (Olaparib + Bortezomib; first compound 0.08 µM): 1.19
- relative viability (Olaparib + Bortezomib; first compound 0.253 µM): 1.03
- relative viability (Olaparib + Bortezomib; first compound 2.53 µM): 1.11
- relative viability (Olaparib + Bortezomib; first compound 8 µM): 1.07
- relative viability (Crizotinib + AZD7762; first compound 0.01 µM): 0.6
- relative viability (Crizotinib + AZD7762; first compound 0.03162 µM): 0.628
- relative viability (Crizotinib + AZD7762; first compound 0.1 µM): 0.558
- relative viability (Crizotinib + AZD7762; first compound 0.3162 µM): 0.575
- relative viability (Crizotinib + AZD7762; first compound 1 µM): 0.716
- relative viability (Olaparib + Pemetrexed; first compound 0.08 µM): 0.309
- relative viability (Olaparib + Pemetrexed; first compound 0.253 µM): 0.346
- relative viability (Olaparib + Pemetrexed; first compound 2.53 µM): 0.298
- relative viability (Olaparib + Pemetrexed; first compound 8 µM): 0.323

Cell Line: A549
- relative viability (Crizotinib + Olaparib; first compound 0.01 µM): 0.38
- relative viability (Crizotinib + Olaparib; first compound 0.03162 µM): 0.259
- relative viability (Crizotinib + Olaparib; first compound 0.1 µM): 0.362
- relative viability (Crizotinib + Olaparib; first compound 1 µM): 0.456

Cell Line: A-427
- relative viability (Crizotinib + Olaparib; first compound 0.01 µM): 0.745
- relative viability (Crizotinib + Olaparib; first compound 0.03162 µM): 0.777
- relative viability (Crizotinib + Olaparib; first compound 0.1 µM): 0.783
- relative viability (Crizotinib + Olaparib; first compound 1 µM): 0.623
- relative viability (Olaparib + Bortezomib; first compound 0.08 µM): 1.03
- relative viability (Olaparib + Bortezomib; first compound 0.253 µM): 0.96
- relative viability (Olaparib + Bortezomib; first compound 2.53 µM): 0.877
- relative viability (Olaparib + Bortezomib; first compound 8 µM): 0.673
- relative viability (Crizotinib + AZD7762; first compound 0.01 µM): 0.709
- relative viability (Crizotinib + AZD7762; first compound 0.03162 µM): 0.766
- relative viability (Crizotinib + AZD7762; first compound 0.1 µM): 0.773
- relative viability (Crizotinib + AZD7762; first compound 1 µM): 0.684
- relative viability (Olaparib + Pemetrexed; first compound 0.08 µM): 0.922
- relative viability (Olaparib + Pemetrexed; first compound 0.253 µM): 0.947
- relative viability (Olaparib + Pemetrexed; first compound 2.53 µM): 0.87
- relative viability (Olaparib + Pemetrexed; first compound 8 µM): 0.73

Cell Line: ABC-1
- relative viability (Crizotinib + Olaparib; first compound 0.03162 µM): 1.11
- relative viability (Crizotinib + Olaparib; first compound 0.1 µM): 0.823
- relative viability (Crizotinib + Olaparib; first compound 1 µM): 0.63
- relative viability (Olaparib + Bortezomib; first compound 0.08 µM): 0.308
- relative viability (Olaparib + Bortezomib; first compound 0.253 µM): 0.332
- relative viability (Olaparib + Bortezomib; first compound 2.53 µM): 0.323
- relative viability (Olaparib + Bortezomib; first compound 8 µM): 0.33
- relative viability (Crizotinib + AZD7762; first compound 0.01 µM): 0.902
- relative viability (Crizotinib + AZD7762; first compound 0.03162 µM): 0.848
- relative viability (Crizotinib + AZD7762; first compound 0.1 µM): 0.695
- relative viability (Crizotinib + AZD7762; first compound 0.3162 µM): 0.671
- relative viability (Crizotinib + AZD7762; first compound 1 µM): 1.34

Cell Line: BEN
- relative viability (Crizotinib + Olaparib; first compound 0.01 µM): 1.04
- relative viability (Crizotinib + Olaparib; first compound 0.03162 µM): 1.06
- relative viability (Crizotinib + Olaparib; first compound 0.1 µM): 0.924
- relative viability (Crizotinib + Olaparib; first compound 0.3162 µM): 0.974
- relative viability (Crizotinib + Olaparib; first compound 1 µM): 1.15
- relative viability (Olaparib + Bortezomib; first compound 0.08 µM): 0.651
- relative viability (Olaparib + Bortezomib; first compound 0.253 µM): 0.632
- relative viability (Olaparib + Bortezomib; first compound 2.53 µM): 0.881
- relative viability (Olaparib + Bortezomib; first compound 8 µM): 0.829
- relative viability (Crizotinib + AZD7762; first compound 0.01 µM): 0.726
- relative viability (Crizotinib + AZD7762; first compound 0.03162 µM): 0.645
- relative viability (Crizotinib + AZD7762; first compound 0.1 µM): 0.671
- relative viability (Crizotinib + AZD7762; first compound 0.3162 µM): 0.586
- relative viability (Crizotinib + AZD7762; first compound 1 µM): 0.679
- relative viability (Olaparib + Pemetrexed; first compound 0.08 µM): 0.725
- relative viability (Olaparib + Pemetrexed; first compound 0.253 µM): 0.672
- relative viability (Olaparib + Pemetrexed; first compound 2.53 µM): 0.828
- relative viability (Olaparib + Pemetrexed; first compound 8 µM): 0.895

Cell Line: CAL-12T
- relative viability (Crizotinib + Olaparib; first compound 0.01 µM): 0.811
- relative viability (Crizotinib + Olaparib; first compound 0.03162 µM): 0.794
- relative viability (Crizotinib + Olaparib; first compound 0.1 µM): 0.743
- relative viability (Crizotinib + Olaparib; first compound 0.3162 µM): 0.709
- relative viability (Crizotinib + Olaparib; first compound 1 µM): 0.723
- relative viability (Olaparib + Bortezomib; first compound 0.08 µM): 1.16
- relative viability (Olaparib + Bortezomib; first compound 0.253 µM): 0.842
- relative viability (Olaparib + Bortezomib; first compound 2.53 µM): 1.04
- relative viability (Olaparib + Bortezomib; first compound 8 µM): 1.03
- relative viability (Crizotinib + AZD7762; first compound 0.01 µM): 0.527
- relative viability (Crizotinib + AZD7762; first compound 0.03162 µM): 0.679
- relative viability (Crizotinib + AZD7762; first compound 0.1 µM): 0.624
- relative viability (Crizotinib + AZD7762; first compound 0.3162 µM): 0.635
- relative viability (Crizotinib + AZD7762; first compound 1 µM): 0.694
- relative viability (Olaparib + Pemetrexed; first compound 0.08 µM): 1.48
- relative viability (Olaparib + Pemetrexed; first compound 0.253 µM): 1.04
- relative viability (Olaparib + Pemetrexed; first compound 2.53 µM): 1.16
- relative viability (Olaparib + Pemetrexed; first compound 8 µM): 0.963

Cell Line: COR-L23
- relative viability (Crizotinib + Olaparib; first compound 0.01 µM): 0.298
- relative viability (Crizotinib + Olaparib; first compound 0.03162 µM): 0.343
- relative viability (Crizotinib + Olaparib; first compound 0.1 µM): 0.372
- relative viability (Crizotinib + Olaparib; first compound 0.3162 µM): 0.366
- relative viability (Crizotinib + Olaparib; first compound 1 µM): 0.382
- relative viability (Olaparib + Bortezomib; first compound 0.08 µM): 1.06
- relative viability (Olaparib + Bortezomib; first compound 0.253 µM): 0.862
- relative viability (Olaparib + Bortezomib; first compound 2.53 µM): 0.92
- relative viability (Olaparib + Bortezomib; first compound 8 µM): 0.474
- relative viability (Olaparib + Pemetrexed; first compound 0.08 µM): 0.221
- relative viability (Olaparib + Pemetrexed; first compound 0.253 µM): 0.195
- relative viability (Olaparib + Pemetrexed; first compound 2.53 µM): 0.177
- relative viability (Olaparib + Pemetrexed; first compound 8 µM): 0.21

Cell Line: COR-L 105
- relative viability (Crizotinib + Olaparib; first compound 0.01 µM): 0.661
- relative viability (Crizotinib + Olaparib; first compound 0.03162 µM): 0.689
- relative viability (Crizotinib + Olaparib; first compound 0.1 µM): 0.757
- relative viability (Crizotinib + Olaparib; first compound 0.3162 µM): 0.584
- relative viability (Crizotinib + Olaparib; first compound 1 µM): 0.7
- relative viability (Olaparib + Bortezomib; first compound 0.08 µM): 0.936
- relative viability (Olaparib + Bortezomib; first compound 0.253 µM): 0.85
- relative viability (Olaparib + Bortezomib; first compound 2.53 µM): 0.464
- relative viability (Olaparib + Bortezomib; first compound 8 µM): 0.426
- relative viability (Olaparib + Pemetrexed; first compound 0.08 µM): 1.31
- relative viability (Olaparib + Pemetrexed; first compound 0.253 µM): 1
- relative viability (Olaparib + Pemetrexed; first compound 2.53 µM): 0.838
- relative viability (Olaparib + Pemetrexed; first compound 8 µM): 0.914

Cell Line: Calu-6
- relative viability (Crizotinib + Olaparib; first compound 0.01 µM): 0.606
- relative viability (Crizotinib + Olaparib; first compound 0.03162 µM): 0.571
- relative viability (Crizotinib + Olaparib; first compound 0.1 µM): 0.522
- relative viability (Crizotinib + Olaparib; first compound 0.3162 µM): 0.624
- relative viability (Crizotinib + Olaparib; first compound 1 µM): 0.549
- relative viability (Olaparib + Bortezomib; first compound 0.08 µM): 1.13
- relative viability (Olaparib + Bortezomib; first compound 0.253 µM): 0.959
- relative viability (Olaparib + Bortezomib; first compound 2.53 µM): 0.796
- relative viability (Olaparib + Bortezomib; first compound 8 µM): 0.777

Cell Line: ChaGo-K-1
- relative viability (Crizotinib + Olaparib; first compound 0.01 µM): 0.422
- relative viability (Crizotinib + Olaparib; first compound 0.03162 µM): 0.413
- relative viability (Crizotinib + Olaparib; first compound 0.1 µM): 0.418
- relative viability (Crizotinib + Olaparib; first compound 0.3162 µM): 0.297
- relative viability (Crizotinib + Olaparib; first compound 1 µM): 0.444
- relative viability (Olaparib + Bortezomib; first compound 0.08 µM): 1.27
- relative viability (Olaparib + Bortezomib; first compound 0.253 µM): 0.96
- relative viability (Olaparib + Bortezomib; first compound 2.53 µM): 1.02
- relative viability (Olaparib + Bortezomib; first compound 8 µM): 0.845
- relative viability (Crizotinib + AZD7762; first compound 0.01 µM): 0.83
- relative viability (Crizotinib + AZD7762; first compound 0.03162 µM): 0.841
- relative viability (Crizotinib + AZD7762; first compound 0.1 µM): 0.839
- relative viability (Crizotinib + AZD7762; first compound 0.3162 µM): 0.711
- relative viability (Crizotinib + AZD7762; first compound 1 µM): 0.905
- relative viability (Olaparib + Pemetrexed; first compound 0.08 µM): 0.266
- relative viability (Olaparib + Pemetrexed; first compound 0.253 µM): 0.258
- relative viability (Olaparib + Pemetrexed; first compound 2.53 µM): 0.261
- relative viability (Olaparib + Pemetrexed; first compound 8 µM): 0.256
